The values that follow are results of earlier work, collected in patent publication US20140348931A1, “SUSTAINED-RELEASE TOPIRAMATE FORMULATIONS” (CADILA HEALTHCARE LIMITED, priority 2013, published 2014).

For this data set the following is noted: in vivo.

For `CC1(C)OC2[C@@H](CO[C@@]3(COS(N)(=O)=O)OC(C)(C)O[C@@H]23)O1` (stereo partly drawn) [topiramate, 2, 3: 4, 5 Di-O-isopropylidene-β-D-fructopyranose sulfamate], the half-life was 21 h.

Usually half-life stands for the time in which the quantity being followed falls by half.
